Experimental findings from patent US20230399312A1, “SUBSTITUTED PYRIMIDINES AND METHODS OF USE” (THERAVANCE BIOPHARMA R&D IP, LLC, priority 2020, published 2023) are described below.

The target of assay [1] is T1, recombinant human ALK5 (TGF-βR1) protein (Homo sapiens, UniProt P36897).
T1 construct: purchased Life Technologies PR9075A
T1 sequence (P36897 34-503): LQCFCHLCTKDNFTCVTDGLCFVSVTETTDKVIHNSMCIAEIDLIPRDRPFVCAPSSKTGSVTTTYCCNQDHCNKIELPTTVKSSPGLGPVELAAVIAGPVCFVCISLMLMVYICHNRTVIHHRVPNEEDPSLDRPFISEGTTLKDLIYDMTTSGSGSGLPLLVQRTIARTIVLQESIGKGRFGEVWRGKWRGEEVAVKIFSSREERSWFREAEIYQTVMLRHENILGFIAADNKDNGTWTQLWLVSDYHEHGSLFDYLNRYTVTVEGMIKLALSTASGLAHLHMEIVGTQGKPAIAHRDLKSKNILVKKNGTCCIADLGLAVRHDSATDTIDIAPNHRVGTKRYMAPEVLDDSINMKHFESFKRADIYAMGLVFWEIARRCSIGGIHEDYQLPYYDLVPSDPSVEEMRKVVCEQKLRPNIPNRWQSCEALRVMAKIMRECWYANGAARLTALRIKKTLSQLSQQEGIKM
As to the kind of experiment: Biochemical ALK5 (TGF-βR1) assay to measure pKi (LANCE Ultra ULight kinase assay). As to conditions: apparent pKi, converted from pIC50 by Cheng-Prusoff. The essentials: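 Enzyme preincubated with compound for 60 min at room temperature, then reacted with ATP (125 μM as 5× stock) for 60 min at 37 °C. Stopped with EDTA plus Eu-anti-phospho-Topoisomerase 2-alpha (Thr1342) antibody and read by TR-FRET at 665 nm. pIC50 from a 4-parameter fit, converted to pKi by Cheng-Prusoff.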
On the technique in general: Time-resolved FRET reads energy transfer from a long-lived donor to a nearby acceptor.

Assay [2] concerns TGF-β-stimulated SMAD3 phosphorylation in BEAS-2B cells. As to the kind of experiment: Cellular ALK5 potency assay, inhibition of TGF-β stimulated pSMAD3 formation in BEAS-2B cells. The format is cell-based. As to conditions: Homo sapiens, pSMAD3, TGF-β 10 ng/mL, read-out: BEAS2B pIC50 (converted). A digest of the protocol:
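Human lung epithelial BEAS-2B cells were pre-treated with compound for 1 h at 37 °C, then stimulated with TGF-β (final 10 ng/mL) for 30 min before lysis. pSMAD3 was quantified by AlphaLISA and pIC50 derived from dose-dependent signal change versus TGF-β-stimulated untreated cells.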

Take `Cc1cccc(-c2nccc(Nc3ccnc(Nc4cccc(NC(=O)C5CCN(CCN(C)C)CC5)c4)n3)n2)n1` [Compound 134, 1-[2-(dimethylamino)ethyl]-N-[3-[[4-[[2-(6-methyl-2-pyridyl)pyrimidin-4-yl]amino]pyrimidin-2-yl]amino]phenyl]piperidine-4-carboxamide]: the Ki in assay [1] is 0.0398 to 0.316 nM. The IC50 in assay [2] is 25.1 to 158 nM.
Turning to `Cc1cccc(-c2nccc(Nc3ccnc(Nc4ccc(Cl)c(NC(=O)C5CCNCC5)c4)n3)n2)n1` [Compound 135, N-[2-chloro-5-[[4-[[2-(6-methyl-2-pyridyl)pyrimidin-4-yl]amino]pyrimidin-2-yl]amino]phenyl]piperidine-4-carboxamide], in assay [1], the Ki is 0.0398 to 0.316 nM. Besides, the IC50 in assay [2] was no more than 20 nM.
For `Cc1cccc(-c2nccc(Nc3ccnc(Nc4ccc(N5CCN(Cc6ccccn6)CC5)cc4)n3)n2)n1` [Compound 136, N4-[2-(6-methyl-2-pyridyl)pyrimidin-4-yl]-N2-[4-[4-(2-pyridylmethyl)piperazin-1-yl]phenyl]pyrimidine-2,4-diamine], in that order: 0.0398 to 0.316 nM and 25.1 to 158 nM.
On the same counts, the results for `CNC1CCN(c2ccc(Nc3nccc(Nc4ccnc(-c5cc(Cl)ccc5F)n4)n3)cc2)CC1` [Compound 137, N4-[2-(5-chloro-2-fluoro-phenyl)pyrimidin-4-yl]-N2-[4-[4-(methylamino)-1-piperidyl]phenyl]pyrimidine-2,4-diamine] are 0.0398 to 0.316 nM and 25.1 to 158 nM.
On the same counts, the results for `Cc1cccc(-c2nccc(Nc3ccnc(Nc4ccc(CN5CCCC(C(=O)OC6CNC6)C5)cc4)n3)n2)n1` (stereo not drawn) [Compound 138, azetidin-3-yl 1-[[4-[[4-[[2-(6-methyl-2-pyridyl)pyrimidin-4-yl]amino]pyrimidin-2-yl]amino]phenyl]methyl] piperidine-3-carboxylate] are 0.0398 to 0.316 nM and 25.1 to 158 nM.
For `Cc1cccc(-c2nccc(Nc3ccnc(Nc4ccc(CN5CCC[C@@H](C(=O)O[C@H]6CCN(C)C6)C5)cc4)n3)n2)n1` [Compound 139, [(3S)-1-methylpyrrolidin-3-yl] (3R)-1-[[4-[[4-[[2-(6-methyl-2-pyridyl)pyrimidin-4-yl]amino]pyrimidin-2-yl]amino]phenyl]methyl] piperidine-3-carboxylate], in assay [1], the Ki is 0.0398 to 0.316 nM. Also, the IC50 in assay [2] is no more than 20 nM.
For `Cc1cccc(-c2nccc(Nc3ccnc(Nc4nc(C(=O)NCC5(CO)CNC5)cs4)n3)n2)n1` [Compound 140, N-[[3-(hydroxymethyl)azetidin-3-yl]methyl]-2-[[4-[[2-(6-methyl-2-pyridyl)pyrimidin-4-yl]amino]pyrimidin-2-yl]amino]thiazole-4-carboxamide], in that order: 0.0398 to 0.316 nM and 25.1 to 158 nM.
For `Cc1cccc(-c2nccc(Nc3ccnc(Nc4cccc(CN5CCOCC5)c4)n3)n2)n1` [Compound 141, N4-[2-(6-methyl-2-pyridyl)pyrimidin-4-yl]-N2-[3-(morpholinomethyl)phenyl] pyrimidine-2,4-diamine], in that order: 0.0398 to 0.316 nM and 25.1 to 158 nM.
For `Cc1cccc(-c2nccc(Nc3ccnc(Nc4cc(C(=O)OCC5CNC5)cs4)n3)n2)n1` [Compound 142, azetidin-3-ylmethyl 5-((4-((2-(6-methylpyridin-2-yl)pyrimidin-4-yl)amino)pyrimidin-2-yl)amino)thiophene-3-carboxylate], in that order: 0.0398 to 0.316 nM and 25.1 to 158 nM.
`Cc1cccc(-c2nccc(Nc3ccnc(Nc4ccc(N5C[C@@H](C)N[C@@H](C)C5)cc4)n3)n2)n1` [Compound 143, N4-[2-(6-methyl-2-pyridyl)pyrimidin-4-yl]-N2-[4-[rac-(3S,5R)-3,5-dimethylpiperazin-1-yl]phenyl]pyrimidine-2,4-diamine]: in assay [1], the Ki is 0.0398 to 0.316 nM. For the same compound, the IC50 in assay [2] was 25.1 to 158 nM.
On the same counts, the results for `Cc1cccc(-c2nccc(Nc3ccnc(Nc4ccc(N5CCCC(C(=O)O[C@H]6CCNC6)C5)cc4)n3)n2)n1` (stereo partly drawn) [Compound 144, [(3S)-pyrrolidin-3-yl] 1-[4-[[4-[[2-(6-methyl-2-pyridyl)pyrimidin-4-yl]amino]pyrimidin-2-yl]amino]phenyl]piperidine-3-carboxylate] are no more than 0.0316 nM and 25.1 to 158 nM.
On the same counts, the results for `Cc1cccc(-c2nccc(Nc3ccnc(Nc4cccc(NC(=O)C5CCN(C)CC5)c4)n3)n2)n1` [Compound 145, 1-methyl-N-[3-[[4-[[2-(6-methyl-2-pyridyl)pyrimidin-4-yl]amino]pyrimidin-2-yl]amino]phenyl]piperidine-4-carboxamide] are 0.0398 to 0.316 nM and 25.1 to 158 nM.
For `Cc1cccc(-c2nccc(Nc3ccnc(Nc4ccc(CCO)cc4)n3)n2)n1` [Compound 146, 2-[4-[[4-[[2-(6-methyl-2-pyridyl)pyrimidin-4-yl]amino]pyrimidin-2-yl]amino]phenyl]ethanol], in that order: 0.398 to 3.16 nM and 25.1 to 158 nM.
Turning to `Cc1cccc(-c2nccc(Nc3ccnc(Nc4ccc(C(=O)OC5CCNCC5)cc4)n3)n2)n1` [Compound 147, 4-piperidyl 4-[[4-[[2-(6-methyl-2-pyridyl)pyrimidin-4-yl]amino]pyrimidin-2-yl]amino]benzoate], in assay [1], the Ki is 0.0398 to 0.316 nM. Further, the IC50 in assay [2] is 25.1 to 158 nM.
On the same counts, the results for `Cc1cccc(-c2nccc(Nc3ccnc(Nc4nc(C(=O)OC5CCNCC5)cs4)n3)n2)n1` [Compound 148, piperidin-4-yl 2-((4-((2-(6-methylpyridin-2-yl)pyrimidin-4-yl)amino)pyrimidin-2-yl)amino)thiazole-4-carboxylate] are 0.398 to 3.16 nM and 25.1 to 158 nM.
For `Cc1cccc(-c2nccc(Nc3ccnc(Nc4ccc(N5CCN(C(=O)CSC6CCOC6=O)CC5)cc4)n3)n2)n1` (stereo not drawn) [Compound 149, 3-[2-[4-[4-[[4-[[2-(6-methyl-2-pyridyl)pyrimidin-4-yl]amino]pyrimidin-2-yl]amino]phenyl]piperazin-1-yl]-2-oxo-ethyl] sulfanyltetrahydrofuran-2-one], in that order: 0.0398 to 0.316 nM and 25.1 to 158 nM.
On the same counts, the results for `Cc1cccc(-c2nccc(Nc3ccnc(Nc4ccc(NC(=O)C5CCN(C)CC5)cc4)n3)n2)n1` [Compound 150, 1-methyl-N-[4-[[4-[[2-(6-methyl-2-pyridyl)pyrimidin-4-yl]amino]pyrimidin-2-yl]amino]phenyl]piperidine-4-carboxamide] are 0.0398 to 0.316 nM and 25.1 to 158 nM.
As for `Cc1cccc(-c2nccc(Nc3ccnc(Nc4ccc(C5=CCC(N)CC5)cc4)n3)n2)n1` (stereo not drawn) [Compound 151, N2-[4-(4-aminocyclohexen-1-yl)phenyl]-N4-[2-(6-methyl-2-pyridyl)pyrimidin-4-yl]pyrimidine-2,4-diamine], the Ki in assay [1] is 0.0398 to 0.316 nM. Also, in assay [2], the IC50 was 25.1 to 158 nM.
On the same counts, the results for `Cc1cccc(-c2nccc(Nc3ccnc(Nc4ccc(CN5CC(C(=O)O[C@@H]6CCNC6)C5)cc4)n3)n2)n1` [Compound 152, [(3R)-pyrrolidin-3-yl] 1-[[4-[[4-[[2-(6-methyl-2-pyridyl)pyrimidin-4-yl]amino]pyrimidin-2-yl]amino]phenyl]methyl] azetidine-3-carboxylate] are 0.0398 to 0.316 nM and 25.1 to 158 nM.
Turning to `Cc1cccc(-c2nccc(Nc3ccnc(Nc4ccc(N5CCN(C)CC5)cc4)n3)n2)n1` [Compound 153, N2-[4-(4-methylpiperazin-1-yl)phenyl]-N4-[2-(6-methyl-2-pyridyl)pyrimidin-4-yl]pyrimidine-2,4-diamine], the Ki in assay [1] is no more than 0.0316 nM. In assay [2], the IC50 was 25.1 to 158 nM.
For `Cc1cccc(-c2nccc(Nc3ccnc(Nc4cccc(NC(=O)C5CNC5)c4)n3)n2)n1` [Compound 154, N-[3-[[4-[[2-(6-methyl-2-pyridyl)pyrimidin-4-yl]amino]pyrimidin-2-yl]amino]phenyl]azetidine-3-carboxamide], in that order: 0.0398 to 0.316 nM and 25.1 to 158 nM.
For `Cc1cccc(-c2nccc(Nc3ccnc(Nc4nc(CN5CCC[C@@H](C(=O)OCC6CNC6)C5)cs4)n3)n2)n1` [Compound 155, azetidin-3-ylmethyl (3R)-1-[[2-[[4-[[2-(6-methyl-2-pyridyl)pyrimidin-4-yl]amino]pyrimidin-2-yl]amino]thiazol-4-yl]methyl]piperidine-3-carboxylate], in that order: 0.398 to 3.16 nM and 200 to 1260 nM.
As to `CCOC(=O)Cc1cc(Nc2nccc(Nc3ccnc(-c4cccc(C)n4)n3)n2)ccc1N1CCNCC1` [Compound 156, ethyl 2-[5-[[4-[[2-(6-methyl-2-pyridyl)pyrimidin-4-yl]amino]pyrimidin-2-yl]amino]-2-piperazin-1-yl-phenyl]acetate], the Ki in assay [1] was 0.0398 to 0.316 nM. Moreover, in assay [2], the IC50 is 25.1 to 158 nM.
On to `Cc1cccc(-c2nccc(Nc3ccnc(Nc4ccc(NCCN5CCNCC5)cc4)n3)n2)n1` [Compound 157, N4-[2-(6-methyl-2-pyridyl)pyrimidin-4-yl]-N2-[4-(2-piperazin-1-ylethylamino)phenyl]pyrimidine-2,4-diamine], for which the Ki in assay [1] was 0.0398 to 0.316 nM. For the same compound, the IC50 in assay [2] is 200 to 1260 nM.
